Assay results: patent EP4745118A1, “HYDROXAMIC ACID COMPOUND OR PHARMACEUTICALLY ACCEPTABLE SALT THEREOF, AND USE THEREOF AND PREPARATION METHOD THEREFOR” (priority 2023, dated 2025)

Assays:
[1] = test system: Escherichia coli ATCC BAA2469 (CRE, NDM-1-producing); test: In vivo antibacterial activity, intraperitoneal infection in mice (survival over 7 days); conditions: for Animal survival rate / Number of surviving animals: mice, one intravenous administration 1 hour post-infection, 7 days; for Number of surviving animals: 5 animals per group
Procedure: Mice were randomly grouped based on body weight, with 5 mice in each group, regardless of gender. The infectious bacteria was Escherichia coli ATCC BAA2469 (CRE, NDM-1-producing). The test bacterial solution was diluted with 5% high-activity dry yeast. Mice received intraperitoneal injection of 0.5 mL of 100% minimum lethal dose (100% MLD) bacterial solution. One intravenous administration was given at 1 hour post-infection at a dose volume of 10 mL/kg. Animal survival numbers were observed over 7 days, and survival rates were calculated.

Enterobacter cloacae = test: In vitro antibacterial activity, agar dilution method (MIC); type: cell-based; conditions: Enterobacter cloacae CDC1000654 (NDM-1-producing); agar dilution, 35°C, 18 hours
Procedure: According to the relevant operating procedures of the Clinical Laboratory Standards Institute (CLSI) in the United States, an antimicrobial susceptibility testing was conducted using the agar dilution method. […] The agar was allowed to solidify and set aside for later use.
(§1) The test bacteria were propagated in broth and adjusted to a turbidity of 0.5 McFarland (approximately 1-2 × 10^8 CFU/mL) using a turbidimeter before inoculation. The 0.5 McFarland bacterial solution was then diluted 10-fold in broth (approximately 1-2 × 10^7 CFU/mL). A multipoint inoculator was used to inoculate the above bacterial solution onto a series of plates containing different concentrations of drugs (with an inoculation amount of approximately 10^4 CFU per inoculation site). After incubation at a constant temperature of 35°C for 18 hours, results were observed. The minimum concentration of drugs contained in sterile growth plates was determined as the Minimal Inhibitory Concentration (MIC).

Escherichia coli = test: as above; type: cell-based; conditions: agar dilution, 35°C, 18 hours
Procedure: (§2) According to the relevant operating procedures of the Clinical Laboratory Standards Institute (CLSI) in the United States, an antimicrobial susceptibility testing was conducted using the agar dilution method. […]. The agar was allowed to solidify and set aside for later use.
as §1

Proteus vulgaris = test: as above; type: cell-based; conditions: Proteus vulgaris ATCC 29905; agar dilution, 35°C, 18 hours
Procedure: as §2, §1

Klebsiella pneumoniae = test: as above; type: cell-based; conditions: agar dilution, 35°C, 18 hours
Procedure: as §2, §1

Serratia marcescens = test: as above; type: cell-based; conditions: Serratia marcescens ATCC 21074; agar dilution, 35°C, 18 hours
Procedure: as §2, §1

Citrobacter freundii = test: as above; type: cell-based; conditions: Citrobacter freundii ATCC 43864; agar dilution, 35°C, 18 hours
Procedure: as §2, §1

Enterobacter aerogenes = test: as above; type: cell-based; conditions: Enterobacter aerogenes ATCC 13048; agar dilution, 35°C, 18 hours
Procedure: as §2, §1

Proteus mirabilis = test: as above; type: cell-based; conditions: Proteus mirabilis ATCC 49565; agar dilution, 35°C, 18 hours
Procedure: as §2, §1

Pseudomonas aeruginosa = test: as above; type: cell-based; conditions: Pseudomonas aeruginosa PAO1; agar dilution, 35°C, 18 hours
Procedure: as §2, §1

Pantoea agglomerans = test: as above; type: cell-based; conditions: Pantoea agglomerans ATCC 27993; agar dilution, 35°C, 18 hours
Procedure: as §2, §1

Shigella flexneri = test: as above; type: cell-based; conditions: Shigella flexneri ATCC 12022, 35°C, 18 hours
Procedure: According to the relevant operating procedures of the Clinical Laboratory Standards Institute (CLSI) in the United States, an antimicrobial susceptibility testing was conducted using the agar dilution method. A 1920 µg/mL stock solution was serially diluted twofold with sterile water to obtain dilutions of 960, 480, 240, 120, 60, 30, 15, 7.5, 3.75, 1.88, 0.94, 0.47 µg/mL, and 1 mL of the dilution was taken respectively from the dilutions with different concentrations and added to a Petri dish, to which 14 mL of melted MH agar medium was added and mixed thoroughly, and the final concentration of the drug in the petri dish is 128, 64, 32, 16, 8, 4, 2, 1, 0.5, 0.25, 0.12, 0.06, and 0.03 µ g/mL, respectively. The agar was allowed to solidify and set aside for later use.
as §1

Colistin
effective dose of in vivo antibacterial activity ([1]; mice with intraperitoneal infection by Escherichia coli ATCC BAA2469, intravenous): below 1.5 mg/kg
Animal survival rate ([1]; dose 0.35 mg/kg): 0%
Number of surviving animals ([1]; dose 0.35 mg/kg): 0 individuals
Animal survival rate ([1]; dose 0.7 mg/kg): 20%
Number of surviving animals ([1]; dose 0.7 mg/kg): 1 individuals
Animal survival rate ([1]; dose 1.4 mg/kg): 80%
Number of surviving animals ([1]; dose 1.4 mg/kg): 4 individuals
MIC (Enterobacter cloacae): 0.5 µg/mL
MIC (Escherichia coli; Escherichia coli 13-43 (mcr-1)): 16 µg/mL
MIC (Escherichia coli; Escherichia coli 17-R28 (CRE, NDM-1-producing)): 0.5 µg/mL
MIC (Escherichia coli; Escherichia coli ATCC 2469 (CRE, NDM-1-producing)): 0.5 µg/mL
MIC (Escherichia coli; Escherichia coli ATCC 35218 (ESBLs-producing)): 0.5 µg/mL
MIC (Proteus vulgaris): >128 µg/mL
MIC (Klebsiella pneumoniae; Klebsiella pneumoniae 09-20 (mcr-1)): 16 µg/mL
MIC (Klebsiella pneumoniae; Klebsiella pneumoniae 17-R27 (CRE)): 16 µg/mL
MIC (Klebsiella pneumoniae; Klebsiella pneumoniae 18-8 (ESBLs-producing)): 0.5 µg/mL
MIC (Klebsiella pneumoniae; Klebsiella pneumoniae ATCC 700603 (ESBLs-producing)): 0.5 µg/mL
MIC (Klebsiella pneumoniae; Klebsiella pneumoniae ATCC BAA-2146 (CRE, NDM-1-producing)): 1 µg/mL
MIC (Serratia marcescens): >128 µg/mL
MIC (Citrobacter freundii): 0.5 µg/mL
MIC (Enterobacter aerogenes): 0.5 µg/mL
MIC (Proteus mirabilis): >128 µg/mL
MIC (Pseudomonas aeruginosa): 2 µg/mL
MIC (Pantoea agglomerans): 0.5 µg/mL
MIC (Shigella flexneri): 0.5 µg/mL
